Patent publication US10471076B2, “Compositions and methods to treat vision disorders” (YouHealth Biotech, Limited, priority 2014, dated 2019)
“Also recorded” adds a separate entry of the source.

Assays:
[1] = biological target: T1, αA-crystallin (Y118D) aggregates (Homo sapiens, UniProt P02489, Y118D); test: Serial live-cell imaging, single-particle tracking of aggregates; type: cell-based; settings: human lens progenitor cells; 40 mM sterol in 1% DMSO for 4 h
T1 construct: expressed in transfected cells; host or cells: human lens progenitor cells, G418-selected
T1 sequence (P02489 1-173 Y118D): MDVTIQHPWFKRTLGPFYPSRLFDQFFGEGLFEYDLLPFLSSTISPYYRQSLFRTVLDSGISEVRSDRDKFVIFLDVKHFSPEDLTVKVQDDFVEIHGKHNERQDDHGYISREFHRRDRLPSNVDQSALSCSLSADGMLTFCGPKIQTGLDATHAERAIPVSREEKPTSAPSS
Method: Live-cell imaging. Human lens progenitor cells were transfected with plasmids containing αA-crystallin (Y118D) mutant. After a 24 h transfection period, the cells with stable expression of αA-crystallin (Y118D) mutant were screen by incubation in culture medium containing 0.8 mg ml^−1 G418 for 7 days. Then the obtained cells were seeded onto glass bottom cell culture dishes (In Vitro Scientific) and treated with 1% DMSO, 40 mM cholesterol in 1% DMSO or 40 mM lanosterol in 1% DMSO for 4 h. Fresh culture medium was added, and the cells were analysed by serial live-cell imaging. Live-cell images were viewed with an Olympus IX81 microscope and captured with CellSens Dimension soft-ware (Olympus). Quantitative analysis of the size of aggregates was performed by measuring the fluorescence intensity of p62-positive aggregates using single-par-tide tracking in live-cell imaging. The live-cell imaging was conducted using three biological replicates with 1-8 repetitions each.

[2] = system: cataract-causing mutant crystallin proteins; test: Intracellular aggregation of mutant crystallins in HeLa cells; type: cell-based, human; settings: then 12 h
Method: FIG. 9A, FIG. 9B, and FIG. 9C show inhibition of crystallin mutant aggregation by wild-type LSS and lanosterol in HLEB-3 cells (FIG. 9A) or HeLa cells (FIG. 9B). Cells co-transfected with LSS and crystallin mutant constructs were cultured for 24 h before assaying for aggregates. The rescue experiments were performed by addition of 40 […] μM sterols (lanosterol or cholesterol) to the cell culture medium for 2 h, the sterol medium was then replaced with fresh culture medium and the cells were cultured for a further 12 h. The percentage of cells with crystallin aggregates were calculated from ten randomly selected viewing fields. The values of the wild-type LSS group, mutant group, or mutant plus lanosterol group were calculated. […] After transfection for 4 h and incubation in fresh culture medium for another 24 h, the cells were lysed and centrifuged to separate supernatant and insoluble fractions. LSS and crystallin fusion proteins were detected by antibodies against Flag and GFP, respectively. Red arrows indicate higher crystalline content in the soluble fraction versus in the insoluble fraction in cells containing the WT-LSS.
Cells were transfected with various crystallin constructs for 4 h and cultured for an additional 24 h in fresh culture medium. Then the cells were treated with 10, 20 and 40 μM lanosterol in 1% (HLEB-3 cells) or 2% DMSO (HeLa cells) for 2 h and cultured for another 12 h. Cells treated with 1% (HLEB-3 cells) or 2% DMSO (HeLa cells) were used as the controls. Formation of intracellular aggregates of various crystallin proteins was visualized by fluorescence of GFP (green) and the nuclei were stained with Hoechst 33342 (blue). Typical intracellular aggregates are indicated by arrows.
The impact of LSS and lanosterol on intracellular crystallin aggregation were evaluated in single-blinded observer studies. Experiments have been repeated at least three times. P values were calculated using Student's t-tests. Fluorescence microscopy. […]

[3] = system: cataract-causing mutant crystallin proteins; test: Intracellular aggregation of mutant crystallins in transfected human lens progenitor cells; type: cell-based
Method: To assess the effect of lanosterol on crystallin aggregation, human lens progenitor cells were co-transfected with LSS and various crystallin constructs for 4 h. Cells co-transfected with crystallin mutants and pcDNA3.1-N-Flag were used as a control. Human lens progenitor cells co-transfected with LSS and crystallin mutant constructs were cultured for 12 h before assaying for aggregates. The rescue experiments were performed after 16 h by addition of 40 mM sterols (lanosterol or cholesterol, Sigma-Aldrich) to the cell culture medium for 2 h, which was then replaced with fresh culture medium and cells cultured for 24 h. The percentage of cells with crystallin aggregates was calculated from ten randomly selected viewing fields. The values of the wild-type LSS group, mutant group, and mutant plus lanosterol group were calculated. Cells treated with 1% DMSO were used as the controls.
The impact of LSS and lanosterol on intracellular crystallin aggregation were evaluated in single-blinded observer studies. Experiments have been repeated at least three times. P values were calculated using Student's t-tests. Fluorescence microscopy. Equal amounts of the human lens progenitor cells, HLEB-3 cells or HeLa cells were seeded on glass coverslips pretreated with TC (Solarbio). After culturing for 24 h to reach 90% confluency, the cells were transfected with plasmids containing various LSS or crystallin genes or co-transfected with plasmids containing a certain crystallin gene and those containing the wild-type or mutated LSS gene. The controls were cells transfected with the plasmids containing peGFP-N1 and/or peDNA3.1-N-Flag. Both transfection and co-transfection were performed using Lipofectamine 3000 (Invitrogen) according to the instructions from the manufacturer.
The effect of lanosterol or cholesterol on the aggresome formation of various crystallins was studied by transfecting the cells with plasmids containing various crystallin genes. The cells were incubated for 24 h to enable efficient protein expression and aggresome formation. The cells were then treated with 0-40 mM sterols in 1% (for human lens progenitor cells) or 2% DMSO (for HeLa cells). Cells treated with 1% or 2% DMSO were used as the control. After treatment for 2 h, the media was replaced with fresh media. After 12 h, the cells were used for microscopy analysis.
The microscopy samples were prepared by washing the slips with phosphate buffered saline (PBS) three times. The cells were fixed with 4% paraformaldehyde for 40 min followed by another three washes with PBS. The cells were permeabilized with 0.1% Triton X-100 (Sigma) in PBS for 10 min and blocked with 5% normal goat serum in PBS for 1 h at 37° C. […] The mounted cells were analysed using a Carl Zeiss LSM 710 confocal microscope.

CC(C)=CCC[C@@H](C)[C@H]1CC[C@@]2(C)C3=C(CC[C@]12C)[C@@]1(C)CC[C@H](O)C(C)(C)[C@@H]1CC3 [lanosterol, 3β-Hydroxy-8,24-lanostadiene; 8,24-Lanostadien-3β-ol]
effect on αA-crystallin (Y118D) aggregates in live cells [1]: could effectively diminish crystallin aggregates | percentage of cells with crystallin aggregates versus control group (rescue) ([2]; HeLa cells co-transfected with LSS and crystallin mutant, 40 μM sterols 2 h, lanosterol P<1×10^−4, cholesterol P>0.1): significantly lower | intracellular aggregation caused by cataract-causing mutant crystallin proteins ([2]; HeLa cells, 10, 20 and 40 μM lanosterol in 2% DMSO for 2 h, concentration-dependent): significantly reduced the intracellular aggregation | intracellular aggregation / aggresome formation of crystallin proteins ([3]; 0-40 mM sterols in 1% DMSO for 2 h, then 12 h, concentration-dependent, n=3, lanosterol P<1×10^−4, cholesterol P>0.1): significantly inhibited aggresome formation; also recorded: significantly reduced the intracellular aggregation | crystallin aggregation in cells co-expressing an LSS mutant and a mutant crystallin (rescue by sterol) ([3]; 40 mM sterols in culture medium for 2 h, then fresh medium 24 h): successfully reduced crystallin aggregation
